In ChEMBL document CHEMBL3407414, “Discovery of AZD3147: a potent, selective dual inhibitor of mTORC1 and mTORC2” (J Med Chem, 2015):

Key:
[1] = Lipophilicity, log D of the compound; format: physicochemical; conditions: octanol/water
human MDR1 [2] = test: Apparent permeability from apical to basolateral side of MDCK2 cells expressing human MDR1 at 10 uM; format: ADME, cell-based, Canis lupus familiaris, MDCK-II; conditions: dog, MDCK-MDR1
human MDR1 [3] = test: Apparent permeability from basolateral to apical side of MDCK2 cells expressing human MDR1 at 10 uM; format: ADME, cell-based, Canis lupus familiaris, MDCK-II; conditions: dog, MDCK-MDR1
[4] = Intrinsic clearance in human hepatocytes assessed per million cells; format: ADME, cell-based, Hepatocyte; conditions: read-out: CLH
[5] = Oral bioavailability in CD-1 mouse at 5 to 20 umol/kg; format: ADME, organism-based; conditions: in vivo
[6] = Volume of distribution at steady state in Beagle dog; format: ADME, organism-based, Canis lupus familiaris; conditions: in vivo, read-out: Vdss
[7] = Clearance in CD-1 mouse at 2.5 to 10 umol/kg, iv; format: ADME, organism-based; conditions: in vivo
[8] = Clearance in Beagle dog at 1 to 3 umol/kg, iv; format: ADME, organism-based, Canis lupus familiaris; conditions: in vivo
[9] = Half life in Beagle dog; format: ADME, organism-based, Canis lupus familiaris; conditions: in vivo
[10] = Volume of distribution at steady state in CD-1 mouse; format: ADME, organism-based; conditions: in vivo, read-out: Vdss
[11] = Oral bioavailability in Beagle dog at 3 to 10 umol/kg; format: ADME, organism-based, Canis lupus familiaris; conditions: in vivo
[12] = Half life in CD-1 mouse; format: ADME, organism-based; conditions: in vivo

| logD [1] | Compound | also measured |
| --- | --- | --- |
| 2.94 | C[C@H]1COCCN1c1cc(C2(S(=O)(=O)C3CC3)CC2)nc(-c2ccc(NC(=O)NC3CC3)cc2)n1 |  |
| > 3.4 | C[C@H]1COCCN1c1cc(C2(S(C)(=O)=O)CCCC2)nc(-c2ccc(NC(=O)NC3CC3)cc2)n1 |  |
| 2.88 | COc1ccc(NC(=O)Nc2ccc(-c3nc(CS(C)(=O)=O)cc(N4CCOC[C@@H]4C)n3)cc2)cc1 |  |
| 1.79 | CNC(=O)Nc1ccc(-c2nc(CS(C)(=O)=O)cc(N3CCOC[C@@H]3C)n2)cc1OC |  |
| 2.45 | CC(C)NC(=O)Nc1ccc(-c2nc(CS(C)(=O)=O)cc(N3CCOC[C@@H]3C)n2)cc1 |  |
| 1.93 | CCNC(=O)Nc1ccc(-c2nc(CS(C)(=O)=O)cc(N3CCOC[C@@H]3C)n2)cc1 |  |
| 2.2 | C[C@H]1COCCN1c1cc(C2(S(=O)(=O)CCCO)CC2)nc(-c2ccc(NC(=S)NC3CC3)cc2)n1 | Papp A→B at 10 µM (human MDR1 [2]): 0.18 ×10⁻⁶ cm/s; Papp B→A at 10 µM (human MDR1 [3]): 22 ×10⁻⁶ cm/s |
| 2.1 | C[C@H]1COCCN1c1cc(C2(S(=O)(=O)C3CC3)CC2)nc(-c2ccc(NC(=O)NCCO)cc2)n1 |  |
| 3.6 | CNC(=O)Nc1ccc(-c2nc(CS(=O)(=O)C3CCCCC3)cc(N3CCOC[C@@H]3C)n2)cc1 |  |
|  | CNC(=O)Nc1ccc(-c2nc(N3CCOC[C@@H]3C)cc(C(C)(C)S(C)(=O)=O)n2)cc1 | hepatocyte CLint [4]: 36.3 µL/min/1e6 cells |
| 2.8 | C[C@H]1COCCN1c1cc(C2(S(C)(=O)=O)CCOCC2)nc(-c2ccc(NC(=O)NC3CC3)cc2)n1 |  |
| 2.8 | C[C@H]1COCCN1c1cc(C2(S(=O)(=O)c3ccccc3)CC2)nc(-c2ccc(NC(=O)NCCO)cc2)n1 | Papp A→B at 10 µM (human MDR1 [2]): 0.18 ×10⁻⁶ cm/s; Papp B→A at 10 µM (human MDR1 [3]): 24 ×10⁻⁶ cm/s |
| 3.3 | C[C@H]1COCCN1c1cc(CS(C)(=O)=O)nc(-c2ccc(NC(=O)Nc3ccccc3)cc2)n1 |  |
| 1.6 | C[C@H]1COCCN1c1cc(C2(S(=O)(=O)CCCO)CC2)nc(-c2ccc(NC(=S)NCCO)cc2)n1 |  |
| 2.1 | C[C@H]1COCCN1c1cc(C2(S(=O)(=O)C3CC3)CC2)nc(-c2ccc(NC(=S)NCCO)cc2)n1 | Papp A→B at 10 µM (human MDR1 [2]): 5.6 ×10⁻⁶ cm/s; bioavailability [5]: 61%; Vd [6]: 2 L/kg; clearance [7]: 8 mL/min/kg; Papp B→A at 10 µM (human MDR1 [3]): 43 ×10⁻⁶ cm/s; clearance [8]: 16 mL/min/kg; half-life [9]: 1.9 h; Vd [10]: 2.3 L/kg; bioavailability [11]: 73%; half-life [12]: 0.9 h |
| 1 | C[C@H]1COCCN1c1cc(CS(C)(=O)=O)nc(-c2ccc(NC(=O)NCCO)cc2)n1 |  |
| 2.5 | CNC(=O)Nc1ccc(-c2nc(N3CCOC[C@@H]3C)cc(C3(S(=O)(=O)c4ccncc4)CC3)n2)cc1 |  |
| 1.54 | CNC(=O)Nc1ccc(-c2nc(CS(C)(=O)=O)cc(N3CCOC[C@@H]3C)n2)cc1 |  |
|  | CNC(=O)c1cccc(-c2ccc3c(N4CCOC[C@@H]4C)nc(N4CCOC[C@@H]4C)nc3n2)c1 [VISTUSERTIB] | hepatocyte CLint [4]: < 4.2 µL/min/1e6 cells |
| 1.74 | C[C@H]1COCCN1c1cc(CS(C)(=O)=O)nc(-c2ccc(NC(=S)NC3CC3)cc2)n1 |  |

| logD [1] | Compound | also measured |
| --- | --- | --- |
| 1.7 | C[C@H]1COCCN1c1cc(CS(=O)(=O)CCCO)nc(-c2ccc(NC(=O)NC3CC3)cc2)n1 |  |
| 2.4 | C[C@H]1COCCN1c1cc(C2(S(=O)(=O)CCCO)CC2)nc(-c2ccc(NC(=O)NC3CC3)cc2)n1 |  |
| 2.62 | C[C@H]1COCCN1c1cc(C2(S(C)(=O)=O)CC2)nc(-c2ccc(NC(=O)NC3CC3)cc2)n1 | hepatocyte CLint [4]: 37.8 µL/min/1e6 cells |
| 3.01 | C[C@H]1COCCN1c1cc(C2(S(=O)(=O)c3ccc(F)cc3)CC2)nc(-c2ccc(NC(=O)NCCO)cc2)n1 |  |
| 2.15 | C[C@H]1COCCN1c1cc(C(C)(C)S(C)(=O)=O)nc(-c2ccc(NC(=S)NCCO)cc2)n1 |  |
| > 3.2 | CS(=O)(=O)Cc1cc(N2CCOCC2)nc(-c2ccc(NC(=O)Nc3ccc(F)cc3)cc2)n1 |  |
| 1.85 | C[C@H]1COCCN1c1cc(CS(C)(=O)=O)nc(-c2ccc(NC(=O)Nc3cnn(C)c3)cc2)n1 |  |
| 2.4 | C[C@H]1COCCN1c1cc(C2(S(C)(=O)=O)CCC2)nc(-c2ccc(NC(=O)NCCO)cc2)n1 |  |
| 3.3 | C[C@H]1COCCN1c1cc(C2(S(C)(=O)=O)CCC2)nc(-c2ccc(NC(=O)NC3CC3)cc2)n1 |  |
| 2 | CNC(=O)Nc1ccc(-c2nc(CS(=O)(=O)C3CC3)cc(N3CCOC[C@@H]3C)n2)cc1 |  |
| 1.78 | C[C@H]1COCCN1c1cc(C2(S(C)(=O)=O)CC2)nc(-c2ccc(NC(=S)NCCO)cc2)n1 | Papp A→B at 10 µM (human MDR1 [2]): 0.07 ×10⁻⁶ cm/s; Papp B→A at 10 µM (human MDR1 [3]): 17 ×10⁻⁶ cm/s |
| 2.85 | C[C@H]1COCCN1c1cc(C2(S(=O)(=O)c3ccccc3)CC2)nc(-c2ccc(NC(=O)NCCCO)cc2)n1 | Papp A→B at 10 µM (human MDR1 [2]): 0.15 ×10⁻⁶ cm/s; Papp B→A at 10 µM (human MDR1 [3]): 31 ×10⁻⁶ cm/s |
| 3.8 | C[C@H]1COCCN1c1cc(CS(C)(=O)=O)nc(-c2ccc(NC(=O)Nc3ccc(F)cc3)cc2)n1 |  |
| 0.3 | C[C@H]1COCCN1c1cc(CS(C)(=O)=O)nc(-c2ccc(NC(=O)NCCN(C)C)cc2)n1 |  |
| 1.5 | CNC(=O)Nc1ccc(-c2nc(CS(C)(=O)=O)cc(N3CCOC[C@@H]3C)n2)cc1C |  |
| 2.8 | COc1ccc(CNC(=O)Nc2ccc(-c3nc(CS(C)(=O)=O)cc(N4CCOC[C@@H]4C)n3)cc2)cc1 |  |
| 2.1 | CNC(=O)Nc1ccc(-c2nc(CS(=O)(=O)c3ccncc3)cc(N3CCOC[C@@H]3C)n2)cc1 |  |
| 2.65 | CNC(=O)Nc1ccc(-c2nc(CS(=O)(=O)c3ccccc3)cc(N3CCOC[C@@H]3C)n2)cc1 |  |
| 2.62 | C[C@H]1COCCN1c1cc(C(C)(C)S(C)(=O)=O)nc(-c2ccc(NC(=O)NC3CC3)cc2)n1 | hepatocyte CLint [4]: 50 µL/min/1e6 cells |
| 1.9 | C[C@H]1COCCN1c1cc(CS(C)(=O)=O)nc(-c2ccc(NC(=O)NC3CC3)cc2)n1 |  |
